Measurements reported in US20110015067A1, “Herbicidal Compositions Comprising Pyroxasulfone” (BASF SE, priority 2008, published 2011).
Read-outs that look alike come from different tables or passages of the source.

Experiments:
Test in all cases: pre-emergence greenhouse test
Format in all cases: in vivo
[1] = system: ABUTH (Abutilon theophrasti); details: for observed activity in % destruction: pre-emergence, 50 g ai/ha
In short: (§1)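 Visual damage ratings, 0% meaning no effect and 100% complete plant destruction relative to untreated controls, were taken 8 and/or 20 days after a pre-emergence spray. Actives were applied in water directly after sowing, solo or as mixtures.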

[2] = system: ALOMY (Alopecurus myosuroides); details: for observed activity in % destruction: pre-emergence
In short: as §1

[3] = system: AMARE (Amaranthus retroflexus); details: for inhibition at 12.5 g/ha: Amaranthus retroflexus, use rate 12.5 g ai/ha, read-out: observed % activity; for inhibition at 12.5 g/ha / observed activity in % destruction: pre-emergence
In short: (§2)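 Compounds suspended or emulsified in water and sprayed onto soil directly after sowing, pots then covered until rooting. Herbicides formulated as 10% suspension concentrates or commercial products, alone or mixed with safener. Damage scored 0-100% versus untreated plants at 8 and/or 20 days after treatment.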

[4] = system: AMBEL (Ambrosia artemisifolia); details: for observed activity in % destruction: pre-emergence, 50 g ai/ha
In short: as §1

[5] = system: CCHEC (Cenchrus echinatus)
In short: as §1

[6] = system: COMBE (Commelina benghalensis); details: for inhibition at 12.5 g/ha: Commelina benghalensis, use rate 12.5 g ai/ha, read-out: observed % activity; for inhibition at 12.5 g/ha / observed activity in % destruction: pre-emergence
In short: as §2

[7] = system: DIGSA (Digitaria sanguinalis); details: DIGSA pre-emergence 25 g ai/ha
In short: as §1

[8] = system: ECHCG (Echinochloa crus-galli); details: for inhibition at 25 g/ha: Echinochloa crus-galli, use rate 25 g ai/ha, read-out: observed % activity; for inhibition at 25 g/ha / observed activity in % destruction: pre-emergence
In short: as §2

[9] = system: LOLMU (Lolium multiflorum); details: for observed activity in % destruction: pre-emergence
In short: as §1

SETFA (Setaria faberii) = details: SETFA pre-emergence 25 g ai/ha
In short: as §1

SETVI (Setaria viridis) = details: for observed activity in % destruction: pre-emergence
In short: as §1

SOLNI (Solanum nigrum) = details: for inhibition at 50 g/ha: Solanum nigrum, use rate 50 g ai/ha, read-out: observed % activity; for inhibition at 50 g/ha / observed activity in % destruction: pre-emergence
In short: as §2

[10] = ABUTH pre-emergence 6.25 g ai/ha
[11] = ABUTH pre-emergence 12.5 g ai/ha
[12] = COMBE pre-emergence 6.25 g ai/ha
[13] = COMBE pre-emergence 12.5 g ai/ha
[14] = ECHCG pre-emergence 12.5 g ai/ha
[15] = SETVI pre-emergence 6.25 g ai/ha
[16] = SETVI pre-emergence 12.5 g ai/ha

## Cn1nc(C(F)(F)F)c(CS(=O)(=O)C2=NOC(C)(C)C2)c1OC(F)F [pyroxasulfone, 3-[5-(difluoromethoxy)-1-methyl-3-(trifluoromethyl)pyrazol-4-ylmethylsulfonyl]-4,5-dihydro-5,5-dimethyl-1,2-oxazole]
[1]; [10]
  observed % destruction 8 DAT: 0%
  observed % destruction 20 DAT: 30%
[1]; [11]
  observed % destruction 8 DAT: 0%
  observed % destruction 20 DAT: 40%
[1]; 8 DAT
  observed activity in % destruction: 40%
[1]; 20 DAT
  observed activity in % destruction: 95%
[2]; ALOMY pre-emergence 6.25 g ai/ha
  observed % destruction 20 DAT: 90%
[2]; ALOMY pre-emergence 12.5 g ai/ha
  observed % destruction 20 DAT: 98%
[2]; ALOMY pre-emergence 25 g ai/ha
  observed % destruction 20 DAT: 98%
[2]; ALOMY pre-emergence 50 g ai/ha
  observed % destruction 8 DAT: 85%
  observed % destruction 20 DAT: 98%
[2]; 12.5 g ai/ha, 8 DAT
  observed activity in % destruction: 70%
[2]; 12.5 g ai/ha, 20 DAT
  observed activity in % destruction: 98%
[2]; 25 g ai/ha, 8 DAT
  observed activity in % destruction: 80%
[2]; 25 g ai/ha, 20 DAT
  observed activity in % destruction: 98%
[2]; 50 g ai/ha, 8 DAT
  observed activity in % destruction: 85%
[2]; 50 g ai/ha, 20 DAT
  observed activity in % destruction: 98%
[3]; AMARE pre-emergence 12.5 g ai/ha
  observed % destruction 20 DAT: 95%
[3]; AMARE pre-emergence 25 g ai/ha
  observed % destruction 8 DAT: 80%
  observed % destruction 20 DAT: 100%
[3]; 192 h, 8 DAT
  inhibition at 12.5 g/ha: 80%
[3]; 480 h, 20 DAT
  inhibition at 12.5 g/ha: 95%
[3]; 12.5 g ai/ha, 8 DAT
  observed activity in % destruction: 80%
[3]; 12.5 g ai/ha, 20 DAT
  observed activity in % destruction: 95%
[3]; 25 g ai/ha, 8 DAT
  observed activity in % destruction: 80%
[3]; 25 g ai/ha, 20 DAT
  observed activity in % destruction: 100%
[3]; 50 g ai/ha, 8 DAT
  observed activity in % destruction: 90%
[3]; 50 g ai/ha, 20 DAT
  observed activity in % destruction: 100%
[4]; AMBEL pre-emergence 6.25 g ai/ha
  observed % destruction 20 DAT: 0%
[4]; AMBEL pre-emergence 12.5 g ai/ha
  observed % destruction 20 DAT: 40%
[4]; AMBEL pre-emergence 25 g ai/ha
  observed % destruction 20 DAT: 40%
[4]; AMBEL pre-emergence 50 g ai/ha
  observed % destruction 8 DAT: 50%
  observed % destruction 20 DAT: 85%
[4]; 8 DAT
  observed activity in % destruction: 50%
[4]; 20 DAT
  observed activity in % destruction: 85%
[5]; CCHEC pre-emergence 6.25 g ai/ha
  observed % destruction 20 DAT: 35%
[5]; CCHEC pre-emergence 12.5 g ai/ha
  observed % destruction 20 DAT: 65%
[6]; [12]
  observed % destruction 8 DAT: 40%
  observed % destruction 20 DAT: 70%
[6]; [13]
  observed % destruction 8 DAT: 75%
  observed % destruction 20 DAT: 98%
[6]; COMBE pre-emergence 25 g ai/ha
  observed % destruction 8 DAT: 95%
  observed % destruction 20 DAT: 100%
[6]; 192 h, 8 DAT
  inhibition at 12.5 g/ha: 75%
[6]; 480 h, 20 DAT
  inhibition at 12.5 g/ha: 98%
[6]; 6.25 g ai/ha, 8 DAT
  observed activity in % destruction: 40%
[6]; 6.25 g ai/ha, 20 DAT
  observed activity in % destruction: 70%
[6]; 12.5 g ai/ha, 8 DAT
  observed activity in % destruction: 75%
[6]; 12.5 g ai/ha, 20 DAT
  observed activity in % destruction: 98%
[6]; 25 g ai/ha, 8 DAT
  observed activity in % destruction: 95%
[6]; 25 g ai/ha, 20 DAT
  observed activity in % destruction: 100%
[7]
  observed % destruction 8 DAT: 90%
  observed % destruction 20 DAT: 100%
[8]; [14]
  observed % destruction 8 DAT: 70%
  observed % destruction 20 DAT: 98%
[8]; ECHCG pre-emergence 25 g ai/ha
  observed % destruction 8 DAT: 75%
  observed % destruction 20 DAT: 98%
[8]; ECHCG pre-emergence 50 g ai/ha
  observed % destruction 8 DAT: 90%
  observed % destruction 20 DAT: 100%
[8]; 192 h, 8 DAT
  inhibition at 25 g/ha: 75%
[8]; 480 h, 20 DAT
  inhibition at 25 g/ha: 98%
[8]; 12.5 g ai/ha, 8 DAT
  observed activity in % destruction: 70%
[8]; 12.5 g ai/ha, 20 DAT
  observed activity in % destruction: 98%
[8]; 25 g ai/ha, 8 DAT
  observed activity in % destruction: 75%
[8]; 25 g ai/ha, 20 DAT
  observed activity in % destruction: 98%
[8]; 50 g ai/ha, 8 DAT
  observed activity in % destruction: 90%
[8]; 50 g ai/ha, 20 DAT
  observed activity in % destruction: 100%
[9]; LOLMU pre-emergence 6.25 g ai/ha
  observed % destruction 20 DAT: 50%
[9]; LOLMU pre-emergence 12.5 g ai/ha
  observed % destruction 20 DAT: 65%
[9]; LOLMU pre-emergence 50 g ai/ha
  observed % destruction 20 DAT: 98%
[9]; 6.25 g ai/ha, 8 DAT
  observed activity in % destruction: 40%
[9]; 6.25 g ai/ha, 20 DAT
  observed activity in % destruction: 50%
[9]; 12.5 g ai/ha, 8 DAT
  observed activity in % destruction: 50%
[9]; 12.5 g ai/ha, 20 DAT
  observed activity in % destruction: 65%
[9]; 50 g ai/ha, 8 DAT
  observed activity in % destruction: 90%
[9]; 50 g ai/ha, 20 DAT
  observed activity in % destruction: 98%
SETFA (Setaria faberii)
  observed % destruction 20 DAT: 98%
SETVI (Setaria viridis); [15]
  observed % destruction 8 DAT: 30%
  observed % destruction 20 DAT: 75%
SETVI (Setaria viridis); [16]
  observed % destruction 8 DAT: 70%
  observed % destruction 20 DAT: 95%
SETVI (Setaria viridis); SETVI pre-emergence 25 g ai/ha
  observed % destruction 8 DAT: 80%
  observed % destruction 20 DAT: 98%
SETVI (Setaria viridis); SETVI pre-emergence 50 g ai/ha
  observed % destruction 8 DAT: 90%
  observed % destruction 20 DAT: 100%
SETVI (Setaria viridis); 6.25 g ai/ha, 8 DAT
  observed activity in % destruction: 30%
SETVI (Setaria viridis); 6.25 g ai/ha, 20 DAT
  observed activity in % destruction: 75%
SETVI (Setaria viridis); 12.5 g ai/ha, 8 DAT
  observed activity in % destruction: 70%
SETVI (Setaria viridis); 12.5 g ai/ha, 20 DAT
  observed activity in % destruction: 95%
SETVI (Setaria viridis); 50 g ai/ha, 8 DAT
  observed activity in % destruction: 90%
SETVI (Setaria viridis); 50 g ai/ha, 20 DAT
  observed activity in % destruction: 100%
SOLNI (Solanum nigrum); SOLNI pre-emergence 6.25 g ai/ha
  observed % destruction 20 DAT: 50%
SOLNI (Solanum nigrum); SOLNI pre-emergence 12.5 g ai/ha
  observed % destruction 20 DAT: 70%
SOLNI (Solanum nigrum); SOLNI pre-emergence 25 g ai/ha
  observed % destruction 20 DAT: 90%
SOLNI (Solanum nigrum); SOLNI pre-emergence 50 g ai/ha
  observed % destruction 8 DAT: 50%
  observed % destruction 20 DAT: 95%
SOLNI (Solanum nigrum); 192 h, 8 DAT
  inhibition at 50 g/ha: 50%
SOLNI (Solanum nigrum); 480 h, 20 DAT
  inhibition at 50 g/ha: 95%
SOLNI (Solanum nigrum); 12.5 g ai/ha, 8 DAT
  observed activity in % destruction: 30%
SOLNI (Solanum nigrum); 12.5 g ai/ha, 20 DAT
  observed activity in % destruction: 70%
SOLNI (Solanum nigrum); 25 g ai/ha, 8 DAT
  observed activity in % destruction: 30%
SOLNI (Solanum nigrum); 25 g ai/ha, 20 DAT
  observed activity in % destruction: 90%
SOLNI (Solanum nigrum); 50 g ai/ha, 8 DAT
  observed activity in % destruction: 50%
SOLNI (Solanum nigrum); 50 g ai/ha, 20 DAT
  observed activity in % destruction: 95%
